Experimental data published in patent publication US9968631B2, “Method for treatment of pulmonary fibrosis” (Galectin Therapeutics, Inc., priority 2013, dated 2018).
“Also recorded” adds a separate entry of the source.

Columns and labels:
[1] = system: bleomycin-induced pulmonary fibrosis in C57Bl/6 mice; assay: Late treatment of pulmonary fibrosis induced by bleomycin in C57Bl/6 mice; type: in vivo, mouse; details: for lung pathology with trichrome stain (fibrosis): FIG. 14; for lung pathology with H & E (fibrosis): FIG. 15; for overall antifibrotic treatment effect: GM-CT-01 120 mg/kg, GR-MD-02 60 mg/kg IV days 10, 13, 16, 20; for Modified Ashcroft Index score vs vehicle: change did not reach significance, FIG. 11; for general fibrosis score vs vehicle: differences did not reach statistical significance, FIG. 12; for Inflammation score vs vehicle: differences not statistically significant, FIG. 13; for percent of fibrotic lung (percent of lung affected): not statistically significant
Method: In these experiments, treatment was initiated after the time when the inflammatory reaction is known to have subsided and the process is one of primarily fibrogenesis. Pulmonary fibrosis was induced in animals using bleomycin at 2.25 U/kg at day 0 as described above. Animals were treated using a GM compound intravenously (GM-CT-01) or GA-RG compound intravenously (GR-MD-02) as described in Table 2.
Animals were euthanized on Day 21 and the lungs were weighed. Data shown in FIG. 9 represent group means and standard error of the means.
The total lung hydroxyproline content was measured. Data shown in FIG. 10 represent group mean and expressed as microgram of hydroxyproline per mg of lung tissue.

[2] = system: bleomycin-induced pulmonary fibrosis in C57Bl/6 mice; assay: Early treatment of pulmonary fibrosis induced by bleomycin in C57Bl/6 mice; type: in vivo, mouse; details: for lung weight vs vehicle-treated mice / total lung hydroxyproline content vs vehicle-treated mice: Day 21, GM-CT-01 120 mg/kg; for lung weight vs vehicle-treated mice: GR-MD-02 60 mg/kg IV days -1, 2, 6, 9, 13, 16, 20, FIG. 2; for total lung hydroxyproline content vs vehicle-treated mice / Modified Ashcroft Index score, difference vs vehicle, p (unpaired t-test): GR-MD-02 60 mg/kg IV; for lung pathology with trichrome stain (fibrosis): FIG. 7; for Modified Ashcroft Index Score compared to the vehicle group: histologic analysis; for general fibrosis score, difference vs vehicle, p (unpaired t-test) / Inflammation score, difference vs vehicle, p (unpaired t-test) / Modified Ashcroft Index score, difference vs vehicle, p (unpaired t-test): outliers removed; for general fibrosis score, difference vs vehicle, p (unpaired t-test): FIG. 5; for Inflammation score, difference vs vehicle, p (unpaired t-test): FIG. 6; for Modified Ashcroft Index score, difference vs vehicle, p (unpaired t-test): GM-CT-01 120 mg/kg, FIG. 4
Method: Instillation of bleomycin in the trachea induces changes similar to diffuse pulmonary fibrosis and/or fibrosing alveolitis in humans. There is an increase in deposition and net synthesis of collagen in the lung with this model.
This model can be used to evaluate therapy started in the inflammatory phase of the belomycin insult (started<7 day after bleomycin) or after the inflammatory phase and during fibrogenesis (started>7 day after bleomycin). In this example, early therapy was evaluated.
The GM (GM-CT-01) and GA-RG (GR-MD-02) compounds were evaluated as preventative therapy in this mouse model.
Pulmonary fibrosis was induced in animals using intra-tracheal instillation of bleomycin at 2.25 U/kg. Animals were treated using a GM compound (GM-CT-01) or GA-RG compound (GR-MD-02) delivered by intravenous infusion as described in Table 1.
Animals were euthanized on Day 21 and the lungs were weighed. Data shown in FIG. 2 represent group means and SEM. Statistical comparison among all groups was performed using one-way ANOVA with Newman-Keuls multiple comparison test.
After euthanasia, the total lung hydroxyproline content was measured. Data shown in FIG. 3 represent group mean and SEM and expressed as microgram of hydroxyproline per mg of lung tissue. Statistical comparison to the “vehicle+Bleomycin” group was performed using one-way ANOVA with Holm-Sidak's multiple comparison test.

[3] = comparison in the experience of the laboratory

Row | Substance | total lung hydroxyproline content (in words) ([1]; Day 21, GM-CT-01 120 mg/kg IV days 10, 13, 16, 20, compared with GR-MD-02, FIG. 10) | lung pathology with trichrome stain (fibrosis) [1] | lung pathology with H & E (fibrosis) [1] | overall antifibrotic treatment effect [1] | Modified Ashcroft Index score vs vehicle [1] | general fibrosis score vs vehicle [1] | Inflammation score vs vehicle [1] | percent of fibrotic lung (percent of lung affected) [1] | lung weight vs vehicle-treated mice [2] | total lung hydroxyproline content vs vehicle-treated mice ([2]; FIG. 3) | lung pathology with trichrome stain (fibrosis) [2] | results compared to pirfenadone [2, 3] | results compared to treatment with anti-TGFbeta [2, 3] | Modified Ashcroft Index Score compared to the vehicle group [2] | general fibrosis score, difference vs vehicle, p (unpaired t-test) [2] | Inflammation score, difference vs vehicle, p (unpaired t-test) [2] | Modified Ashcroft Index score, difference vs vehicle, p (unpaired t-test) [2] | lung weight vs control animals ([1]; Day 21, GR-MD-02 60 mg/kg IV days 10, 13, 16, 20, FIG. 9) | reduction of the increase in hydroxyproline ([1]; Day 21, GR-MD-02 60 mg/kg IV days 10, 13, 16, 20, did not reach significance, FIG. 10) [%] | total lung hydroxyproline content vs vehicle-treated mice ([2]; FIG. 3, listed as GA-MD-02)
1 | 1,4-β-D-Galactomannan [GM-CT-01] | less of a decrease | less effect | some reduction in the fibrosis | effective at reducing pulmonary fibrosis; also recorded: more modest positive treatment effect | little change | reduction in the fibrosis score | no change | notably reduced | significantly reduce lung weight; also recorded: significant reduction in mean lung weight; also recorded: markedly reduce lung weight | reduce lung hydroxyproline content; also recorded: significant reduction; also recorded: markedly reduce | effective at reducing fibrosis | superior to the results using pirfenadone | superior to treatment with anti-TGFbeta | significant reduction | 0.0979 | 0.0544 | 0.0199 |  |  | 
2 | galactoarabino-rhamnogalacturonate [GR-MD-02] |  | effective at reducing fibrosis | marked decrease in fibrous tissue | effective at reducing pulmonary fibrosis; also recorded: strongest anifibrotic effect; also recorded: more effective than GM-CT-01 | reduction in the Aschroft score | reduction in the fibrosis score | reduction in inflammation score | tended to have reduced percent of fibrotic lung | significantly reduce lung weight; also recorded: significant reduction in mean lung weight; also recorded: markedly reduce lung weight | significant reduction; also recorded: markedly reduce | effective at reducing fibrosis | superior to the results using pirfenadone |  | significant reduction | 0.0206 | 0.0508 | 0.0112 | decreased lung weight of the GR-MD-02 treated group as compared to control animals, this difference did not reach statistical significance | 50 | reduce lung hydroxyproline content
